What was measured:
[1] = Size, polydispersity index and surface charge of mRNA-LNP (Malvern Zetasizer Nano ZS90); assay type: physicochemical; settings: for PDI / size (nm) Number: mRNA-LNP made with the ionizable lipid at its optimal formulation (Table 2); for size (nm) Number: diluted with PBS to 1 μg/mL mRNA; for Zeta (mV): surface charge of mRNA-LNP made with the ionizable lipid at its optimal formulation (Table 2)
Experimental: Each mRNA-LNPs produced in Example 27 was diluted with PBS to a final mRNA concentration of 1 μg/mL. The size, polydispersity index (PDI), and surface charge of the mRNA-LNPs were then measured using a Malvern Zetasizer Nano ZS90 (Malvern Instruments, UK).
For particles intended for systemic administration, such as via blood vessels, the particle size must be less than 200 nm in order to pass through the endothelial capillaries of the liver. In addition, the size distribution is considered uniform only when the PDI is 0.3 or less, which enables consistent and efficient therapeutic effects (Non-patent document 3 [Danaei, M. et al). Pharmaceutics 2018, 10, 57]).

[2] = Stability of mRNA-LNPs according to storage temperature and duration; assay type: physicochemical; settings: for Normalized EE % D-1 / Size (nm) D-1 / PDI D-1: day 1; for Normalized EE % D-7 / PDI D-7 / Size (nm) D-7: day 7; for Normalized EE % D-30 / PDI D-30 / Size (nm) D-30: day 30
Experimental: Stability of fLuc mRNA-LNPs produced using various ionizable lipids according to the method of Example 27, was assessed by storing the LNPs at 4° C. and 25° C. At 1, 7, and 30 days post-manufacture, the size, PDI, and encapsulation efficiency (EE) of each mRNA-LNPs samples were measured using the methods described in Experimental Examples 2 and 3.

[3] = tested on: IL-1β mRNA level in HEK-293T cells; settings: human
[4] = tested on: CCL2 mRNA level in HEK-293T cells; settings: human
[5] = tested on: IL-6 mRNA level in HEK-293T cells; settings: human
female C57BL/6 mice = assay: Protein expression efficiency of fLuc mRNA-LNPs after intramuscular injection (IVIS whole-body luminescence); assay type: in vivo; settings: for Total flux 1 hour / Total flux 3 hours / Total flux 6 hours / Total flux 48 hours / Total flux 72 hours / Total flux: fLuc mRNA-LNP, intramuscular injection, luminescence at injection site, mice; for Total flux 1 hour: 1 hour after administration; for Total flux 3 hours: 3 hours after administration; for Total flux 6 hours: 6 hours after administration; for Total flux 48 hours: 48 hours after administration; for Total flux 72 hours: 72 hours after administration; for Total flux: after administration; for Fold increase in total flux at 3 h, MC3: relative to control LNP formulated with MC3; for Fold increase in total flux at 3 h, MC3 / Fold increase in total flux at 3 h, SM-102: 3 hours after intramuscular injection; for Fold increase in total flux at 3 h, SM-102: relative to control LNP formulated with SM-102
Experimental: fLuc mRNA-LNPs formulated using various ionizable lipids were prepared according to the method described in Example 27 and administered in vivo via intramuscular (I. M.) or intravenous (IV.) injection to compare the resulting protein expression efficiency in vivo. As a control, EGFP mRNA-LNPs formulated with commercially available ionizable lipids MC3 or SM-102 were used. All mRNA-LNPs were administered at equal mRNA doses per body weight across different concentration groups (n≥4).
Specifically, the dose of mRNA-LNPs was adjusted to 0.1-0.5 mg/kg of body weight, and the formulation was administered via I.M. or I.V. injection to female C57BL/6 mice (6-10 weeks old, Orient Bio, Korea) Subsequently, […], whole-body luminescence images were acquired using an in vivo imaging system (IVIS Lumina III, PerkinElmer, Walzam, MA, USA). To assess protein expression levels, 200 μL of D-luciferin (15 mg/mL) was administered via intraperitoneal (I.P.) injection 10 minutes prior to imaging. During image acquisition, the animals were anesthetized by inhalation of 3% isoflurane in 97% medical grade oxygen. In addition, the acquired luminescence images were quantitatively analyzed using imaging software (Living Image Software Version 4.4; PerkinElmer, USA).
After intramuscular injection of the fLuc mRNA-LNPs, the luminescence intensity at the injection site was measured over time.
Furthermore, the luminescence intensity at the injection site 3 hours after intramuscular injection was measured, and the relative protein expression efficiency was compared to that of control LNPs formulated with MC3 or SM-102.

[6] = tested on: CCL3 mRNA level in HEK-293T cells; settings: human
[7] = mRNA encapsulation efficiency (Quant-IT RiboGreen RNA assay); assay type: physicochemical; settings: mRNA encapsulation efficiency of mRNA-LNP made with the ionizable lipid; average of two measurements
Experimental: The mRNA encapsulation efficiency (EE, %) of LNPs containing mRNA was measured using the Quant-IT™ RiboGreen® RNA assay kit (Invitrogen, USA).
The diluted samples were added to each well of a 96-well plate. Group A (without Triton X-100) was supplemented with 50 μL of 1×TE buffer, while Group B (with Triton X-100) was supplemented with 50 μL of 1×TE buffer containing 2% Triton-X 100. To release the encapsulated mRNA, the LNPs were treated with Triton-X 100 and incubated at 37° C. for 10 minutes. Subsequently, 100 μL of ribogreen reagent was added to each well. The fluorescence intensities of Group A and Group B were measured using a multi-plate reader (λex 480 nm, λem 520 nm), and mRNA encapsulation efficiency (%) was calculated using Equation 1 below. The encapsulation efficiency for each LNP was determined as the average of two independent measurements.

Structure (SMILES): CCCCCCCCCCCOC(=O)CCCCCN(CCCCCCCC(=O)OC(CCCCCCCC)CCCCCCCC)CC(O)CCCCNC(=O)c1ccc[nH]1 (stereo not drawn) [Compound 16, Heptadecan-9-yl 8-((2-hydroxy-6-(1H-pyrrole-2-carboxamido)hexyl)(6-oxo-6-(undecyloxy)hexyl)amino)octanoate]
- PDI [1]: 0.101
- size (nm) Number [1]: 132 nm
- Zeta (mV) [1]: −7.87 mV
- Normalized EE % D-1 ([2]; fLuc mRNA-LNP stored at 4° C.): 90.9%
- Size (nm) D-1 ([2]; fLuc mRNA-LNP stored at 4° C.): 132.2 nm
- Normalized EE % D-7 ([2]; fLuc mRNA-LNP stored at 4° C.): 91.5%
- PDI D-7 ([2]; fLuc mRNA-LNP stored at 4° C.): 0.138
- Size (nm) D-7 ([2]; fLuc mRNA-LNP stored at 4° C.): 137.1 nm
- Normalized EE % D-30 ([2]; fLuc mRNA-LNP stored at 4° C.): 86.9%
- PDI D-30 ([2]; fLuc mRNA-LNP stored at 4° C.): 0.069
- Size (nm) D-30 ([2]; fLuc mRNA-LNP stored at 4° C.): 141.5 nm
- Normalized EE % D-1 ([2]; fLuc mRNA-LNP stored at 25° C.): 90.9%
- PDI D-1 ([2]; fLuc mRNA-LNP stored at 25° C.): 0.101
- Size (nm) D-1 ([2]; fLuc mRNA-LNP stored at 25° C.): 132.2 nm
- Normalized EE % D-7 ([2]; fLuc mRNA-LNP stored at 25° C.): 89.1%
- PDI D-7 ([2]; fLuc mRNA-LNP stored at 25° C.): 0.059
- Size (nm) D-7 ([2]; fLuc mRNA-LNP stored at 25° C.): 137.7 nm
- Normalized EE % D-30 ([2]; fLuc mRNA-LNP stored at 25° C.): 84.4%
- PDI D-30 ([2]; fLuc mRNA-LNP stored at 25° C.): 0.093
- Size (nm) D-30 ([2]; fLuc mRNA-LNP stored at 25° C.): 145.1 nm
- IL-1β Average [3]: 0.74
- CCL2 Average [4]: 0.79
- IL-6 Average [5]: 0.97
- Total flux 1 hour (female C57BL/6 mice): 1.11E+07
- Total flux 3 hours (female C57BL/6 mice): 5.26E+07
- Total flux 6 hours (female C57BL/6 mice): 3.64E+07
- Total flux 48 hours (female C57BL/6 mice): 1.71E+06
- Total flux 72 hours (female C57BL/6 mice): 1.40E+06
- Total flux (female C57BL/6 mice): 1.61E+07
- Fold increase in total flux at 3 h, MC3 (female C57BL/6 mice): 4.26
- Fold increase in total flux at 3 h, SM-102 (female C57BL/6 mice): 0.47
- CCL3 Average [6]: 2.31
- EE (%) [7]: 91%

Structure (SMILES): CCCCCCCCCCCOC(=O)CCCCCN(CCCCCCCC(=O)OC(CCCCCCCC)CCCCCCCC)CC(O)CCCCNC(=O)c1c[nH]c(O)n1 (stereo not drawn) [Compound 35, Heptadecan-9-yl 8-((2-hydroxy-6-(2-hydroxy-1H-imidazole-4-carboxamido)hexyl)(6-oxo-6-(undecyloxy)hexyl)amino)octanoate]
- PDI [1]: 0.040
- size (nm) Number [1]: 123 nm
- Zeta (mV) [1]: −3.90 mV
- Normalized EE % D-1 ([2]; fLuc mRNA-LNP stored at 4° C.): 90.2%
- Size (nm) D-1 ([2]; fLuc mRNA-LNP stored at 4° C.): 123.4 nm
- Normalized EE % D-7 ([2]; fLuc mRNA-LNP stored at 4° C.): 83.7%
- PDI D-7 ([2]; fLuc mRNA-LNP stored at 4° C.): 0.089
- Size (nm) D-7 ([2]; fLuc mRNA-LNP stored at 4° C.): 130.3 nm
- Normalized EE % D-30 ([2]; fLuc mRNA-LNP stored at 4° C.): 88.6%
- PDI D-30 ([2]; fLuc mRNA-LNP stored at 4° C.): 0.127
- Size (nm) D-30 ([2]; fLuc mRNA-LNP stored at 4° C.): 141.3 nm
- Normalized EE % D-1 ([2]; fLuc mRNA-LNP stored at 25° C.): 90.2%
- PDI D-1 ([2]; fLuc mRNA-LNP stored at 25° C.): 0.040
- Size (nm) D-1 ([2]; fLuc mRNA-LNP stored at 25° C.): 123.4 nm
- Normalized EE % D-7 ([2]; fLuc mRNA-LNP stored at 25° C.): 85.3%
- PDI D-7 ([2]; fLuc mRNA-LNP stored at 25° C.): 0.098
- Size (nm) D-7 ([2]; fLuc mRNA-LNP stored at 25° C.): 133.3 nm
- Normalized EE % D-30 ([2]; fLuc mRNA-LNP stored at 25° C.): 88.3%
- PDI D-30 ([2]; fLuc mRNA-LNP stored at 25° C.): 0.076
- Size (nm) D-30 ([2]; fLuc mRNA-LNP stored at 25° C.): 123.8 nm
- IL-1β Average [3]: 0.91
- CCL2 Average [4]: 1.42
- IL-6 Average [5]: 1.14
- Total flux 1 hour (female C57BL/6 mice): 1.54E+07
- Total flux 3 hours (female C57BL/6 mice): 4.49E+07
- Total flux 6 hours (female C57BL/6 mice): 5.04E+07
- Total flux 48 hours (female C57BL/6 mice): 7.96E+05
- Total flux 72 hours (female C57BL/6 mice): 1.27E+06
- Total flux (female C57BL/6 mice): 6.12E+06
- Fold increase in total flux at 3 h, MC3 (female C57BL/6 mice): 3.64
- Fold increase in total flux at 3 h, SM-102 (female C57BL/6 mice): 0.40
- CCL3 Average [6]: 2.30
- EE (%) [7]: 90%

Structure (SMILES): CCCCCCCCCCCOC(=O)CCCCCN(CCCCCCCC(=O)OC(CCCCCCCC)CCCCCCCC)CC(O)CCCCNC(=O)c1nccn1C (stereo not drawn) [Compound 36, Heptadecan-9-yl 8-((2-hydroxy-6-(1-methyl-1H-imidazole-2-carboxamido)hexyl)(6-oxo-6-(undecyloxy)hexyl)amino)octanoate]
- PDI [1]: 0.073
- size (nm) Number [1]: 112 nm
- Zeta (mV) [1]: −3.19 mV
- Normalized EE % D-1 ([2]; fLuc mRNA-LNP stored at 4° C.): 87.2%
- Size (nm) D-1 ([2]; fLuc mRNA-LNP stored at 4° C.): 111.9 nm
- Normalized EE % D-7 ([2]; fLuc mRNA-LNP stored at 4° C.): 89.1%
- PDI D-7 ([2]; fLuc mRNA-LNP stored at 4° C.): 0.146
- Size (nm) D-7 ([2]; fLuc mRNA-LNP stored at 4° C.): 114.4 nm
- Normalized EE % D-30 ([2]; fLuc mRNA-LNP stored at 4° C.): 86.6%
- PDI D-30 ([2]; fLuc mRNA-LNP stored at 4° C.): 0.076
- Size (nm) D-30 ([2]; fLuc mRNA-LNP stored at 4° C.): 120.9 nm
- Normalized EE % D-1 ([2]; fLuc mRNA-LNP stored at 25° C.): 87.2%
- PDI D-1 ([2]; fLuc mRNA-LNP stored at 25° C.): 0.073
- Size (nm) D-1 ([2]; fLuc mRNA-LNP stored at 25° C.): 111.9 nm
- Normalized EE % D-7 ([2]; fLuc mRNA-LNP stored at 25° C.): 89.0%
- PDI D-7 ([2]; fLuc mRNA-LNP stored at 25° C.): 0.123
- Size (nm) D-7 ([2]; fLuc mRNA-LNP stored at 25° C.): 110.6 nm
- Normalized EE % D-30 ([2]; fLuc mRNA-LNP stored at 25° C.): 83.8%
- PDI D-30 ([2]; fLuc mRNA-LNP stored at 25° C.): 0.092
- Size (nm) D-30 ([2]; fLuc mRNA-LNP stored at 25° C.): 119.2 nm
- IL-1β Average [3]: 0.96
- CCL2 Average [4]: 1.86
- IL-6 Average [5]: 1.30
- Total flux 1 hour (female C57BL/6 mice): 1.62E+07
- Total flux 3 hours (female C57BL/6 mice): 4.51E+07
- Total flux 6 hours (female C57BL/6 mice): 3.18E+07
- Total flux 48 hours (female C57BL/6 mice): 3.79E+06
- Total flux 72 hours (female C57BL/6 mice): 3.09E+06
- Total flux (female C57BL/6 mice): 1.03E+07
- Fold increase in total flux at 3 h, MC3 (female C57BL/6 mice): 3.65
- Fold increase in total flux at 3 h, SM-102 (female C57BL/6 mice): 0.40
- CCL3 Average [6]: 2.40
- EE (%) [7]: 87%

Reference: US20260184669A1, “LIPID COMPOUND AND COMPOSITION FOR DELIVERY OF ACTIVE SUBSTANCE” (KOREA RESEARCH INSTIUTE OF BIOSCIENCE AND BIOTECHNOLOGY, priority 2022, published 2026)
